Converted amounts (≈) assume the structure as drawn.
How the values were obtained:
Format in all cases: cell-based
[1] = test system: Streptococcus pneumoniae 5979; assay: In vitro agar dilution MIC, organism code ZZ; conditions: unit assumed
Protocol: (§1) Representative compounds of the present invention were assayed in vitro for antibacterial activity as follows: Twelve petri dishes containing successive aqueous dilutions of the test compound mixed with 10 mL of sterilized Brain Heart Infusion (BHI) agar (Difco 0418-01-5) were prepared. Each plate was inoculated with 1:100 (or 1:10 for slow-growing strains, such as Micrococcus and Streptococcus) dilutions of up to 32 different microorganisms, using a Steers replicator block. The inoculated plates were incubated at 35-37° C. for 20 to 24 hours. In addition, a control plate, using BHI agar containing no test compound, was prepared and incubated at the beginning and end of each test.
(§2) An additional plate containing a compound having known susceptibility patterns for the organisms being tested and belonging to the same antibiotic class as the test compound was also prepared and incubated as a further control, as well as to provide test-to-test comparability.
(§3) After incubation, each plate was visually inspected. The minimum inhibitory concentration (MIC) was defined as the lowest concentration of drug yielding no growth, a slight haze, or sparsely isolated colonies on the inoculum spot as compared to the growth control.

[2] = test system: Micrococcus luteus ATCC 4698; assay: In vitro agar dilution MIC, organism code PP; conditions: Table 1B, in µg/mL (unit assumed)
Protocol: as §1, §2, §3

[3] = test system: Staphylococcus aureus CMX 553; assay: In vitro agar dilution MIC, organism code FF; conditions: Table 1B, unit assumed
Protocol: as §1, §2, §3

[4] = test system: Streptococcus agalactiae CMX 508; assay: In vitro agar dilution MIC, organism code KK; conditions: Table 1B, unit assumed
Protocol: as §1, §2, §3

[5] = test system: Staphylococcus aureus A-5278; assay: In vitro agar dilution MIC, organism code CC; conditions: unit assumed
Protocol: as §1, §2, §3

[6] = test system: Staphylococcus aureus A5177; assay: In vitro agar dilution MIC, organism code BB; conditions: in µg/mL (unit assumed)
Protocol: as §1, §2, §3

[7] = test system: Candida albicans CCH 442; assay: In vitro agar dilution MIC, organism code TT; conditions: Table 1B, unit assumed
Protocol: as §1, §2, §3

[8] = test system: Micrococcus luteus ATCC 9341; assay: In vitro agar dilution MIC, organism code OO; conditions: Table 1B, unit assumed
Protocol: as §1, §2, §3

[9] = test system: Streptococcus bovis A-5169; assay: In vitro agar dilution MIC, organism code JJ; conditions: Table 1B, unit assumed
Protocol: as §1, §2, §3

[10] = test system: Escherichia coli JUHL; assay: In vitro agar dilution MIC, organism code QQ; conditions: Table 1B, in µg/mL (unit assumed)
Protocol: as §1, §2, §3

[11] = test system: Staphylococcus aureus 1775; assay: In vitro agar dilution MIC, organism code GG; conditions: Table 1B, unit assumed
Protocol: as §1, §2, §3

[12] = test system: Staphylococcus epidermidis 3519; assay: In vitro agar dilution MIC, organism code HH; conditions: Table 1B, in µg/mL (unit assumed)
Protocol: as §1, §2, §3

[13] = test system: Streptococcus pneumoniae ATCC 6303; assay: In vitro agar dilution MIC, organism code XX; conditions: unit assumed
Protocol: as §1, §2, §3

[14] = test system: Escherichia coli SS; assay: In vitro agar dilution MIC, organism code RR; conditions: Table 1B, in µg/mL (unit assumed)
Protocol: as §1, §2, §3

[15] = test system: Staphylococcus aureus ATCC 6538P; assay: In vitro agar dilution MIC, organism code AA; conditions: unit assumed
Protocol: as §1, §2, §3

[16] = test system: Enterococcus faecium ATCC 8043; assay: In vitro agar dilution MIC, organism code II; conditions: Table 1B, unit assumed
Protocol: as §1, §2, §3

[17] = test system: Streptococcus pyogenes 930; assay: In vitro agar dilution MIC, organism code MM; conditions: unit assumed
Protocol: as §1, §2, §3

[18] = test system: Streptococcus pyogenes EES61; assay: In vitro agar dilution MIC, organism code LL; conditions: unit assumed
Protocol: as §1, §2, §3

[19] = test system: Staphylococcus aureus CMX 642A; assay: In vitro agar dilution MIC, organism code DD; conditions: Table 1B, unit assumed
Protocol: as §1, §2, §3

[20] = test system: Nocardia asteroides ATCC 9970; assay: In vitro agar dilution MIC, organism code VV; conditions: Table 1B, in µg/mL (unit assumed)
Protocol: as §1
as §2, with “comparability. Erythromycin A was used for this purpose.” for “comparability.”
as §3

[21] = test system: Streptococcus pneumoniae 5649; assay: In vitro agar dilution MIC, organism code ZZA; conditions: unit assumed
Protocol: as §1, §2, §3

[22] = test system: Staphylococcus aureus NCTC10649M; assay: In vitro agar dilution MIC, organism code EE; conditions: Table 1B, unit assumed
Protocol: as §1, §2, §3

[23] = test system: Escherichia coli DC-2; assay: In vitro agar dilution MIC, organism code SS; conditions: Table 1B, unit assumed
Protocol: as §1, §2, §3

[24] = test system: Haemophilis influenzae DILL AMP R; assay: In vitro agar dilution MIC, organism code WW; conditions: unit assumed
Protocol: as §1, §2, §3

[25] = test system: Streptococcus pneumoniae GYR 1171; assay: In vitro agar dilution MIC, organism code YY; conditions: Table 1B, unit assumed
Protocol: as §1, §2, §3

[26] = test system: Mycobacterium smegmatis ATCC 114; assay: In vitro agar dilution MIC, organism code UU; conditions: Table 1B, in µg/mL (unit assumed)
Protocol: as §1, §2, §3

[27] = test system: Streptococcus pyogenes PIU 2548; assay: In vitro agar dilution MIC, organism code NN; conditions: unit assumed
Protocol: as §1, §2, §3

SMILES | MIC [2] | MIC [3] [mg/L] | MIC [4] [mg/L] | MIC ([5]; Table 1B) [mg/L] | MIC ([6]; Table 1B) | MIC [7] [mg/L] | MIC [8] [mg/L] | MIC [9] [mg/L] | MIC [10] | MIC [11] [mg/L] | MIC [12] | MIC [14] | MIC ([15]; Table 1B) [mg/L] | MIC [16] [mg/L] | MIC ([17]; Table 1B) [mg/L] | MIC ([18]; Table 1B) [mg/L] | MIC [19] [mg/L] | MIC [20] | MIC ([21]; Table 1B) [mg/L] | MIC [22] [mg/L] | other results
CC[C@H]1OC(=O)C(C)(Br)C(=O)[C@H](C)[C@@H](O[C@@H]2O[C@H](C)C[C@H](N(C)C)[C@H]2O)[C@](C)(OC)C[C@@H](C)C2=NCCN3C(=O)O[C@@]1(C)[C@H]3[C@H]2C (some centres unmarked) [Example 3] | 0.39 | 0.39 (≈ 0.544 µM) | 0.2 (≈ 0.279 µM) | > 100 | 0.39 | > 100 | 0.05 (≈ 0.0698 µM) | 0.2 (≈ 0.279 µM) | > 100 | > 100 | 0.39 | 0.39 | 0.39 (≈ 0.544 µM) | 0.1 (≈ 0.14 µM) | > 100 | 0.05 (≈ 0.0698 µM) | 0.39 (≈ 0.544 µM) | 0.39 | 2 (≈ 2.79 µM) | 0.39 (≈ 0.544 µM) | MIC ([1]; Table 1C): > 128 mg/L; MIC ([5]; Table 1C): > 100 mg/L; MIC ([6]; Table 1C): 0.78; MIC ([13]; Table 1C): 0.25 mg/L (≈ 0.349 µM); MIC ([15]; Table 1C): 0.78 mg/L (≈ 1.09 µM); MIC ([17]; Table 1C): 128 mg/L (≈ 179 µM); MIC ([18]; Table 1C): < 0.125 mg/L; MIC ([21]; Table 1C): 1 mg/L (≈ 1.4 µM); MIC [23]: > 100 mg/L; MIC ([24]; Table 1B): 8 mg/L (≈ 11.2 µM); MIC ([24]; Table 1C): 8 mg/L (≈ 11.2 µM); MIC [25]: 0.125 mg/L (≈ 0.174 µM); MIC [26]: 1.56; MIC ([27]; Table 1B): 0.39 mg/L (≈ 0.544 µM)
CC[C@H]1OC(=O)[C@@](C)(F)C(=O)[C@H](C)[C@@H](O[C@@H]2O[C@H](C)C[C@H](N(C)C)[C@H]2O)[C@](C)(OC/C=C/c2cnc3ncccc3c2)C[C@@H](C)C(=O)[C@H](C)[C@H]2NC(=O)O[C@@]21C [Example 11] | 0.05 | 0.05 (≈ 0.0637 µM) | 0.01 (≈ 0.0127 µM) | > 100 | 0.05 | > 100 | 0.01 (≈ 0.0127 µM) | 0.01 (≈ 0.0127 µM) | 25 | 100 (≈ 127 µM) | 0.05 | 0.2 | 0.05 (≈ 0.0637 µM) | 0.05 (≈ 0.0637 µM) | 0.1 (≈ 0.127 µM) | 0.39 (≈ 0.497 µM) | 0.05 (≈ 0.0637 µM) | 0.01 | 0.25 (≈ 0.319 µM) | 0.05 (≈ 0.0637 µM) | MIC ([1]; Table 1B): 0.125 mg/L (≈ 0.159 µM); MIC ([13]; Table 1B): ≤ 0.004 mg/L; MIC [23]: 12.5 mg/L (≈ 15.9 µM); MIC ([24]; Table 1B): 2 mg/L (≈ 2.55 µM); MIC [25]: ≤ 0.004 mg/L; MIC [26]: 0.78; MIC ([27]; Table 1B): 0.01 mg/L (≈ 0.0127 µM)
CC[C@H]1OC(=O)[C@@](C)(F)C(=O)[C@H](C)[C@@H](O[C@@H]2O[C@H](C)C[C@H](N(C)C)[C@H]2O)[C@](C)(OC/C=C/c2ccccc2)C[C@@H](C)C(=O)[C@H](C)[C@H]2NC(=O)O[C@@]21C [Example 7] | 0.02 | 0.05 (≈ 0.0682 µM) | ≤ 0.005 | 100 (≈ 136 µM) | 0.05 | > 100 | ≤ 0.005 | ≤ 0.005 | 50 | 100 (≈ 136 µM) | 0.05 | 0.1 | 0.05 (≈ 0.0682 µM) | 0.02 (≈ 0.0273 µM) | 25 (≈ 34.1 µM) | ≤ 0.005 | 0.05 (≈ 0.0682 µM) | ≤ 0.005 | 0.25 (≈ 0.341 µM) | 0.05 (≈ 0.0682 µM) | MIC ([1]; Table 1B): 64 mg/L (≈ 87.3 µM); MIC ([1]; Table 1D): 64 mg/L (≈ 87.3 µM); MIC ([13]; Table 1B): ≤ 0.004 mg/L; MIC ([13]; Table 1D): ≤ 0.04 mg/L; MIC ([17]; Table 1D): 16 mg/L (≈ 21.8 µM); MIC ([18]; Table 1D): ≤ 0.04 mg/L; MIC ([21]; Table 1D): 0.25 mg/L (≈ 0.341 µM); MIC [23]: 25 mg/L (≈ 34.1 µM); MIC ([24]; Table 1B): 2 mg/L (≈ 2.73 µM); MIC ([24]; Table 1D): 2 mg/L (≈ 2.73 µM); MIC [25]: ≤ 0.004 mg/L; MIC [26]: 0.05; MIC ([27]; Table 1B): 0.05 mg/L (≈ 0.0682 µM); MIC ([27]; Table 1D): 0.25 mg/L (≈ 0.341 µM)
CC[C@H]1OC(=O)[C@@](C)(F)C(=O)[C@H](C)[C@@H](O[C@@H]2O[C@H](C)C[C@H](N(C)C)[C@H]2O)[C@](C)(OC/C=C/c2cnc3ccc(N)cc3c2)C[C@@H](C)C(=O)[C@H](C)[C@H]2NC(=O)O[C@@]21C [Example 9] | 0.02 | 0.02 (≈ 0.025 µM) | ≤ 0.005 | > 100 | 0.02 | > 100 | ≤ 0.005 | ≤ 0.005 | 25 | > 100 | 0.02 | 0.2 | 0.02 (≈ 0.025 µM) | 0.01 (≈ 0.0125 µM) | 0.2 (≈ 0.25 µM) | ≤ 0.005 | 0.02 (≈ 0.025 µM) | < 0.005 | 1 (≈ 1.25 µM) | 0.05 (≈ 0.0626 µM) | MIC ([1]; Table 1B): 0.25 mg/L (≈ 0.313 µM); MIC ([13]; Table 1B): 0.015 mg/L (≈ 0.0188 µM); MIC [23]: 25 mg/L (≈ 31.3 µM); MIC ([24]; Table 1B): 2 mg/L (≈ 2.5 µM); MIC [25]: 0.015 mg/L (≈ 0.0188 µM); MIC [26]: 0.78; MIC ([27]; Table 1B): 0.1 mg/L (≈ 0.125 µM)

— US6124269A, “2-Halo-6-O-substituted ketolide derivatives” (priority 1998, dated 2000)
